Publication PMC4584933, “Establishing the pig as a large animal model for vaccine development against human cancer” (Frontiers in Genetics, 2015)

Columns and labels:
[1] = system: SLA-1*04:01; test: Peptide-MHC class I complex stability, scintillation proximity assay (SPA); parameters: species or system pig; conditions: biotinylated recombinant SLA heavy chain, 125I-β2m, excess unlabeled β2m, read every 40 min, number only if t1/2 ≥ 0.5 h, '-' = not stably binding
In short: (§1)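 Biotinylated recombinant heavy chains captured on streptavidin scintillation plates with 125I-β2m and peptide; signal read every 40 min under dissociating conditions with excess unlabeled β2m. Signal duration gives complex half-life; ≥ 0.5 h counted as stable binder.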

[2] = system: SLA-1*07:02; test: as above; parameters: species or system pig; conditions: biotinylated recombinant SLA heavy chain, 125I-β2m, excess unlabeled β2m, read every 40 min, number only if t1/2 ≥ 0.5 h, '-' = not stably binding
In short: as §1

[3] = system: PBMCs; test: In vitro peptide stimulation of porcine PBMCs, IFN-γ release assay (ELISA); type: cell-based, pig; parameters: key to T cell response: “x” indicates that a response was found to this given peptide at least once; conditions: PBMCs of immunized pigs, 2 × 10^5/well, 5 μg/ml peptide, 67.5–70.0 h, IFN-γ ELISA; response = 2-fold increase vs day -2 and at least 25 pg/ml IFN-γ, found at least once; SLA restriction not included
[4] = system: SLA-2*04:01; test: Peptide-MHC class I complex stability, scintillation proximity assay (SPA); parameters: species or system pig; conditions: biotinylated recombinant SLA heavy chain, 125I-β2m, excess unlabeled β2m, read every 40 min, number only if t1/2 ≥ 0.5 h, '-' = not stably binding
In short: as §1

[5] = system: SLA-2*05:02; test: as above; parameters: species or system pig; conditions: biotinylated recombinant SLA heavy chain, 125I-β2m, excess unlabeled β2m, read every 40 min, number only if t1/2 ≥ 0.5 h, '-' = not stably binding
In short: as §1

[6] = system: SLA-3*04:01; test: as above; parameters: species or system pig; conditions: biotinylated recombinant SLA heavy chain, 125I-β2m, excess unlabeled β2m, read every 40 min, number only if t1/2 ≥ 0.5 h, '-' = not stably binding
In short: as §1

| Sequence | Binder (t1/2 ≥ 0.5 h): half-life of peptide-SLA-1*04:01 complex [1] | Binder (t1/2 ≥ 0.5 h): half-life of peptide-SLA-1*07:02 complex [2] | T cell response [3] | Binder (t1/2 ≥ 0.5 h): half-life of peptide-SLA-2*04:01 complex [4] | Binder (t1/2 ≥ 0.5 h): half-life of peptide-SLA-2*05:02 complex [5] | Binder (t1/2 ≥ 0.5 h): half-life of peptide-SLA-3*04:01 complex [6] |
| --- | --- | --- | --- | --- | --- | --- |
| ALWDTAGQEDY [RhoC1, porcine RhoC-derived 9-11mer peptide] | 234 min | 54 min | x |  |  |  |
| ASAIKVIPTLF [IDO8, porcine IDO-derived 9-11mer peptide] | - (t1/2 (hours) is listed for each of the stably binding peptides (t1/2 ≥ 0.5 h)) |  |  | - (t1/2 (hours) is listed for each of the stably binding peptides (t1/2 ≥ 0.5 h)) |  |  |
| CVQAMVSLRNY [IDO9, porcine IDO-derived 9-11mer peptide] | - (t1/2 (hours) is listed for each of the stably binding peptides (t1/2 ≥ 0.5 h)) | 186 min |  |  |  |  |
| EDYDRLRPLSY [RhoC14, porcine RhoC-derived 9-11mer peptide] | - (t1/2 (hours) is listed for each of the stably binding peptides (t1/2 ≥ 0.5 h)) |  |  | - (t1/2 (hours) is listed for each of the stably binding peptides (t1/2 ≥ 0.5 h)) |  |  |
| EIAAASAIKVI [IDO16, porcine IDO-derived 9-11mer peptide] | 48 min |  | x |  | 750 min |  |
| GSAAQSSIF [IDO33, porcine IDO-derived 9-11mer peptide] | - (t1/2 (hours) is listed for each of the stably binding peptides (t1/2 ≥ 0.5 h)) |  |  | - (t1/2 (hours) is listed for each of the stably binding peptides (t1/2 ≥ 0.5 h)) |  |  |
| KGDALLQETY [IDO48, porcine IDO-derived 9-11mer peptide] | 42 min |  | x | - (t1/2 (hours) is listed for each of the stably binding peptides (t1/2 ≥ 0.5 h)) |  |  |
| KVLPRNIAIPY [IDO63, porcine IDO-derived 9-11mer peptide] | - (t1/2 (hours) is listed for each of the stably binding peptides (t1/2 ≥ 0.5 h)) | 42 min | x |  |  | - (t1/2 (hours) is listed for each of the stably binding peptides (t1/2 ≥ 0.5 h)) |
| LLDITSSLH [IDO67, porcine IDO-derived 9-11mer peptide] | 42 min |  | x |  |  |  |
| MANRISAFGY [RhoC39, porcine RhoC-derived 9-11mer peptide] | 42 min | 90 min | x | 84 min |  |  |
| NMDILFSFP [IDO85, porcine IDO-derived 9-11mer peptide] | 48 min |  | x |  |  |  |
| RDMANRISAF [RhoC42, porcine RhoC-derived 9-11mer peptide] | - (t1/2 (hours) is listed for each of the stably binding peptides (t1/2 ≥ 0.5 h)) |  |  | - (t1/2 (hours) is listed for each of the stably binding peptides (t1/2 ≥ 0.5 h)) |  | - (t1/2 (hours) is listed for each of the stably binding peptides (t1/2 ≥ 0.5 h)) |
| RISAFGYLE [RhoC43, porcine RhoC-derived 9-11mer peptide] | - (t1/2 (hours) is listed for each of the stably binding peptides (t1/2 ≥ 0.5 h)) |  |  |  |  |  |
| RLAHLVLGY [IDO104, porcine IDO-derived 9-11mer peptide] | - (t1/2 (hours) is listed for each of the stably binding peptides (t1/2 ≥ 0.5 h)) | 30 min |  | - (t1/2 (hours) is listed for each of the stably binding peptides (t1/2 ≥ 0.5 h)) |  |  |
| RTYMPPAHRNF [IDO113, porcine IDO-derived 9-11mer peptide] | 60 min |  |  | - (t1/2 (hours) is listed for each of the stably binding peptides (t1/2 ≥ 0.5 h)) | - (t1/2 (hours) is listed for each of the stably binding peptides (t1/2 ≥ 0.5 h)) | - (t1/2 (hours) is listed for each of the stably binding peptides (t1/2 ≥ 0.5 h)) |
| SAAQSSIFQCF [IDO122, porcine IDO-derived 9-11mer peptide] | 1810 min |  | x | - (t1/2 (hours) is listed for each of the stably binding peptides (t1/2 ≥ 0.5 h)) |  |  |

| Sequence | Binder (t1/2 ≥ 0.5 h): half-life of peptide-SLA-1*04:01 complex [1] | Binder (t1/2 ≥ 0.5 h): half-life of peptide-SLA-1*07:02 complex [2] | T cell response [3] | Binder (t1/2 ≥ 0.5 h): half-life of peptide-SLA-2*04:01 complex [4] | Binder (t1/2 ≥ 0.5 h): half-life of peptide-SLA-2*05:02 complex [5] | Binder (t1/2 ≥ 0.5 h): half-life of peptide-SLA-3*04:01 complex [6] |
| --- | --- | --- | --- | --- | --- | --- |
| SIDGLQGHKM [IDO115, porcine IDO-derived 9-11mer peptide] | - (t1/2 (hours) is listed for each of the stably binding peptides (t1/2 ≥ 0.5 h)) |  |  |  |  |  |
| SIDSPDSLENI [RhoC47, porcine RhoC-derived 9-11mer peptide] | - (t1/2 (hours) is listed for each of the stably binding peptides (t1/2 ≥ 0.5 h)) |  |  |  |  |  |
| SKDQFPEVY [RhoC48, porcine RhoC-derived 9-11mer peptide] | - (t1/2 (hours) is listed for each of the stably binding peptides (t1/2 ≥ 0.5 h)) |  |  | - (t1/2 (hours) is listed for each of the stably binding peptides (t1/2 ≥ 0.5 h)) |  |  |
| SLENIPEKW [RhoC49, porcine RhoC-derived 9-11mer peptide] | - (t1/2 (hours) is listed for each of the stably binding peptides (t1/2 ≥ 0.5 h)) |  |  | - (t1/2 (hours) is listed for each of the stably binding peptides (t1/2 ≥ 0.5 h)) |  |  |
| SLENIPEKWTP [RhoC50, porcine RhoC-derived 9-11mer peptide] | - (t1/2 (hours) is listed for each of the stably binding peptides (t1/2 ≥ 0.5 h)) |  |  |  |  |  |
| SLESGPSVREF [IDO116, porcine IDO-derived 9-11mer peptide] | 48 min |  | x |  |  |  |
| SLHKALEVF [IDO117, porcine IDO-derived 9-11mer peptide] | - (t1/2 (hours) is listed for each of the stably binding peptides (t1/2 ≥ 0.5 h)) | - (t1/2 (hours) is listed for each of the stably binding peptides (t1/2 ≥ 0.5 h)) |  |  |  |  |
| TSSLHKALEVF [IDO123, porcine IDO-derived 9-11mer peptide] | - (t1/2 (hours) is listed for each of the stably binding peptides (t1/2 ≥ 0.5 h)) |  |  | - (t1/2 (hours) is listed for each of the stably binding peptides (t1/2 ≥ 0.5 h)) |  |  |
| VLGYITMAY [IDO125, porcine IDO-derived 9-11mer peptide] | - (t1/2 (hours) is listed for each of the stably binding peptides (t1/2 ≥ 0.5 h)) | 60 min |  | 48 min |  |  |
| VLPRNIAIPY [IDO126, porcine IDO-derived 9-11mer peptide] | - (t1/2 (hours) is listed for each of the stably binding peptides (t1/2 ≥ 0.5 h)) | 42 min | x |  |  |  |
| VQAMVSLRNY [IDO129, porcine IDO-derived 9-11mer peptide] | 72 min |  | x | - (t1/2 (hours) is listed for each of the stably binding peptides (t1/2 ≥ 0.5 h)) |  |  |
| YADCVLANW [IDO133, porcine IDO-derived 9-11mer peptide] | 324 min |  | x | 102 min |  |  |
| YPDTDVILMCF [RhoC59, porcine RhoC-derived 9-11mer peptide] | 60 min | 48 min |  |  |  |  |
| YVDPKLFFNV [IDO135, porcine IDO-derived 9-11mer peptide] | - (t1/2 (hours) is listed for each of the stably binding peptides (t1/2 ≥ 0.5 h)) |  |  |  |  |  |
| YVDPKLFFNVL [IDO136, porcine IDO-derived 9-11mer peptide] | - (t1/2 (hours) is listed for each of the stably binding peptides (t1/2 ≥ 0.5 h)) |  |  |  |  |  |
